Laboratory results taken from ChEMBL document CHEMBL2034965, “The synthesis of 2,5-bis(4-amidinophenyl)thiophene derivatives providing submicromolar-range inhibition of the botulinum neurotoxin serotype A metalloprotease” (Eur J Med Chem, 2012).
pKi: −log10 of the molar value.

Key:
[1] = target: Botulinum neurotoxin type A (Clostridium botulinum, UniProt P0DPI0); assay: Competitive inhibition of clostridium botulinum Botulinum neurotoxin type A light chain by RP-HPLC analysis
[2] = target: Botulinum neurotoxin type A (Clostridium botulinum) (UniProt P0DPI0); assay: Inhibition of clostridium botulinum Botulinum neurotoxin type A light chain at 20 uM by RP-HPLC analysis
[3] = target: Botulinum neurotoxin type A (Clostridium botulinum) (UniProt P0DPI0); assay: Ratio of Ki for NSC 300510 to compound Ki for clostridium botulinum Botulinum neurotoxin type A light chain by RP-HPLC analysis

Sequence of Botulinum neurotoxin type A (Clostridium botulinum) (P0DPI0 2-448 limits assumed): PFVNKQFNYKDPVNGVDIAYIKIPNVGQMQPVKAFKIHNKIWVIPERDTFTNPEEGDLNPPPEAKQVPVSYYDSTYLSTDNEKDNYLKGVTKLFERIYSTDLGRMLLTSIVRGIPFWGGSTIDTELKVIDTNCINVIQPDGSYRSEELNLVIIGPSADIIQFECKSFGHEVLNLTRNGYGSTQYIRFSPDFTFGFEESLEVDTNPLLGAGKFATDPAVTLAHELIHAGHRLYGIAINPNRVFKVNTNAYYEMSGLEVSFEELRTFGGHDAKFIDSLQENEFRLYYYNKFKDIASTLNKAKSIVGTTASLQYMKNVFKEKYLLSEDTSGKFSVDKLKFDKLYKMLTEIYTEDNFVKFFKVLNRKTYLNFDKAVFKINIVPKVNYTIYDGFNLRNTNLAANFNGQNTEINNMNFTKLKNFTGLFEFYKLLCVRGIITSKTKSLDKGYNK
Sequence of Botulinum neurotoxin type A (P0DPI0 2-448 limits assumed): as above

Clc1ccc2c(NCCCCCNCc3ccc(-c4ccc(-c5ccc(CNCCCCCNc6ccnc7cc(Cl)ccc67)cc5)s4)cc3)ccnc2c1
pKi [1]: 6.05

Clc1ccc2c(NCCCCNCc3ccc(-c4ccc(-c5ccc(CNCCCCNc6ccnc7cc(Cl)ccc67)cc5)s4)cc3)ccnc2c1
pKi [1]: 6.27

N=C(N)c1ccc(-c2ccc(-c3ccc(C(=N)N)cc3)s2)cc1
inhibition [2]: 78% | pKi [1]: 4.96

O=C(NCCCNc1ccnc2cc(Cl)ccc12)c1cc(NC(=O)c2ccc(C(=O)Nc3cc(C(=O)NCCCNc4ccnc5cc(Cl)ccc45)cc(C4=NCCN4)c3)cc2)cc(C2=NCCN2)c1
Ratio Ki [3]: 15

Clc1ccc2c(NCCCNCc3ccc(-c4ccc(-c5ccc(CNCCCNc6ccnc7cc(Cl)ccc67)cc5)s4)cc3)ccnc2c1
Ratio Ki [3]: 36

Clc1ccc2c(NCCNCc3ccc(-c4ccc(-c5ccc(CNCCNc6ccnc7cc(Cl)ccc67)cc5)s4)cc3)ccnc2c1
pKi [1]: 6.05
